These results are taken from patent publication US8901315B2, “Thienopyrazole derivative having PDE7 inhibitory activity” (Daiichi Sankyo Company, Limited, priority 2004, dated 2014).

Molecules are shown by their SMILES. Where a name gives a salt, the structure may show the parent alone. Read-outs that look alike come from different tables or passages of the source.

Experiment [1] has as its target PDE 7 (phosphodiesterase VII) (Homo sapiens (Human), UniProt Q13946). The experiment in a line: PDE 7 inhibiting effect (3H-cAMP hydrolysis, PDE 7 active fraction from MOLT-4 cells). The experiment is classed as biochemical. The settings on record: read-out: PDE7 IC50. Put shortly:
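PDE7 taken from the soluble fraction of human MOLT-4 T cells (homogenised in pH 7.5 Tris buffer, 100,000×G spin), partially purified on HiTrap Q with a 0–0.8 M NaCl gradient. Inhibition measured as ³H-cAMP hydrolysis, with product separated using Sephadex-QAE in 10 mM HEPES-Na pH 7.0.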

In experiment [2] the target is PDE 4 (phosphodiesterase IV). The experiment in a line: PDE 4 inhibiting effect (3H-cAMP hydrolysis, PDE 4 active fraction from Balb/c mouse liver). Type of experiment: biochemical. The settings on record: PDE 4 fraction from Balb/c mice liver, 0.064 μM cAMP, 2 hours at 25° C.; read-out: PDE4 IC50. The essentials:
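PDE4 was taken from the soluble liver fraction of male Balb/c mice (12 weeks), purified on DEAE sepharose with a sodium acetate gradient. Inhibition was measured as hydrolysis of 3H-cAMP. The reaction was followed by Sephadex-QAE treatment in HEPES-Na pH 7.0.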

[3] abbreviates: PDE 7 fraction from MOLT-4 cells, 0.064 μM cAMP, 10 μM rolipram, 2 hours at 25° C.

PDE 7 (phosphodiesterase VII), sequence (Q13946 whole entry): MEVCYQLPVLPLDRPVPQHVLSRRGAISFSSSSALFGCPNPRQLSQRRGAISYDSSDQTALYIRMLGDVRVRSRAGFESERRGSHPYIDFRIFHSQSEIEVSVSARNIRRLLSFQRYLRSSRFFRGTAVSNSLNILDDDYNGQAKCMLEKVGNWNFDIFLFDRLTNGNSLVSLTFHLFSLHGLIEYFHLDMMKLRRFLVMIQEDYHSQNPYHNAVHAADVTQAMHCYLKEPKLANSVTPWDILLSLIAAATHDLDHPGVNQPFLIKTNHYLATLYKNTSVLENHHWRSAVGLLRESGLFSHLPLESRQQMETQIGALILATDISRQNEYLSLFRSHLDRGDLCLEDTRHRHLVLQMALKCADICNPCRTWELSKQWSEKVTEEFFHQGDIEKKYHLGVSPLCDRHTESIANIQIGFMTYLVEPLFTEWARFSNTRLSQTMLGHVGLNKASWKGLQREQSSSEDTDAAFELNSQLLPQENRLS

Usually IC50 stands for the point on the concentration scale where inhibition reaches its midpoint. Turning to `COc1cc(NC(=O)c2cc3c(C)nn(C4CCCCC4)c3s2)ccc1C(=O)NCCO` [Example 150, 1-Cyclohexyl-N-(4-{[(2-hydroxyethyl)amino]carbonyl}-3-methoxyphenyl)-3-methyl-1H-thieno[2,3-c]pyrazole-5-carboxamide], the IC50 stood at 45 nM in experiment [1] (setting [3]) and 700 nM in experiment [2].
Take `Cc1nn(C2CCCCC2)c2sc(C(=O)NCCN3CC(=O)N(C)C3=O)cc12` [Example 317, 1-Cyclohexyl-3-methyl-N-[2-(3-methyl-2,4-dioxo-1-imidazolidinyl)-ethyl]-1H-thieno[2,3-c]pyrazole-5-carboxamide]: the IC50 in experiment [1] (setting [3]) is 67 nM; in experiment [2], 12000 nM.
In the case of `Cc1nn(C2CCCCC2)c2sc(C(=O)Nc3cccc(S(=O)(=O)N4CCN(C)CC4)c3)cc12` [Example 110, 1-Cyclohexyl-3-methyl-N-{3-[(4-methyl-piperazinyl)sulfonyl]-phenyl}-1H-thieno[2,3-c]pyrazole-5-carboxamide HCl salt], the IC50 in experiment [1] (setting [3]) was found to be 75 nM; in experiment [2], 5500 nM.
Taken in the same sequence, the figures for `Cc1nn(C2CCCCC2)c2sc(C(=O)Nc3ccc(N(C)CCO)c(F)c3)cc12` [Example 125, 1-Cyclohexyl-N-{3-fluoro-4-[(2-hydroxyethyl)(methyl)amino]phenyl}-3-methyl-1H-thieno[2,3-c]pyrazole-5-carboxamide HCl salt] were 75 nM and 4000 nM.
As for `Cc1nn(C2CCCCC2)c2sc(C(=O)Nc3ccc(N4CCC(O)CC4)c(C(=O)O)c3)cc12` [Example 375], the values for the IC50 in experiment [1] (setting [3]) and in experiment [2] were 7.2 nM and 930 nM, respectively.
As for `CC(=O)N1CCN([C@H]2CC[C@H](NC(=O)c3cc4c(C)nn(C5CCCCC5)c4s3)CC2)CC1` [Example 190, N-[trans-4-(4-Acetyl-1-piperazinyl)cyclohexyl]-1-cyclohexyl-3-methyl-1H-thieno[2,3-c]pyrazole-5-carboxamide], the IC50 came to 3.5 nM in experiment [1] (setting [3]) and 1700 nM in experiment [2].
`Cc1nn(C2CCCCC2)c2sc(C(=O)Nc3ccc(CN4CCC(O)CC4)nc3)cc12` [Example 413, 1-Cyclohexyl-N-{6-[(4-hydroxy-1-piperidinyl)methyl]-3-pyridinyl}-3-methyl-1H-thieno[2,3-c]pyrazole-5-carboxamide]: the values for the IC50 in experiment [1] (setting [3]) and in experiment [2] were 30 nM and 2500 nM, respectively.
As for `Cc1nn(C2CCCCC2)c2sc(C(=O)Nc3ccc(N4CCN(C)CC4)nc3)cc12` [Example 109, 1-Cyclohexyl-3-methyl-N-[6-(4-methyl-1-piperazinyl)-3-pyridinyl]-1H-thieno[2,3-c]pyrazole-5-carboxamide di-HCl salt], the results for the IC50 in experiment [1] and in experiment [2] were 15 nM and 1000 nM, respectively.
`Cc1nn(C2CCCCC2)c2sc(C(=O)Nc3ccc(N4CCC(O)CC4)nc3)cc12` [Example 370, 1-Cyclohexyl-N-[6-(4-hydroxy-1-piperidinyl)-3-pyridinyl]-3-methyl-1H-thieno[2,3-c]pyrazole-5-carboxamide]: the IC50 in experiment [1] (setting [3]) turned out to be 8.7 nM; in experiment [2], 4100 nM.
Taken in the same sequence, the figures for `Cc1nn(C2CCCCC2)c2sc(C(=O)N[C@H]3CC[C@H](N4CCC(O)CC4)CC3)cc12` [Example 176, 1-Cyclohexyl-N-[trans-4-(4-hydroxy-1-piperidinyl)cyclohexyl]-3-methyl-1H-thieno[2,3-c]pyrazole-5-carboxamide] were 20 nM and 1700 nM.
Taken in the same sequence, the figures for `CNC1CCN(c2ccc(NC(=O)c3cc4c(C)nn(C5CCCCC5)c4s3)cc2F)CC1` [Example 163, 1-Cyclohexyl-N-{3-fluoro-4-[4-(methylamino)-1-piperidinyl]phenyl}-3-methyl-1H-thieno[2,3-c]pyrazole-5-carboxamide] were 14 nM and 900 nM.
As for `Cc1nn(C2CCOCC2)c2sc(C(=O)N[C@H]3CC[C@H](N4CCC(C(=O)N(C)C)CC4)CC3)cc12` [Example 428, N-(trans-4-{4-[(Dimethylamino)carbonyl]-1-piperidinyl}cyclohexyl)-3-methyl-1-tetrahydro-2H-pyran-4-yl-1H-thieno[2,3-c]pyrazole-5-carboxamide], the IC50 in experiment [1] (setting [3]) turned out to be 50 nM; in experiment [2], 9700 nM.
As to `Cc1nn(C2CCCCC2)c2sc(C(=O)Nc3cccc(S(=O)(=O)N4CCC(O)CC4)c3)cc12` [Example 264, 1-Cyclohexyl-N-{3-[(4-hydroxy-1-piperidinyl)sulfonyl]phenyl}-3-methyl-1H-thieno[2,3-c]pyrazole-5-carboxamide], the IC50 came to 81 nM in experiment [1] (setting [3]) and 6300 nM in experiment [2].
In the case of `Cc1nn(C2CCCCC2)c2sc(C(=O)NCCN3C(=O)CN(C)C3=O)cc12` [Example 277, 1-Cyclohexyl-3-methyl-N-[2-(3-methyl-2,5-dioxo-1-imidazolidinyl)-ethyl]-1H-thieno[2,3-c]pyrazole-5-carboxamide], the results for the half-maximal inhibitory concentration (IC50) in experiment [1] (setting [3]) and in experiment [2] were 32 nM and 7800 nM, respectively.
With `Cc1nn(C2CCOCC2)c2sc(C(=O)Nc3ccc(N4CCC(O)CC4)c(F)c3)cc12` [Example 268, N-[3-Fluoro-4-(4-hydroxy-piperidinyl)phenyl]-3-methyl-1-tetrahydro-2H-pyran-4-yl-1H-thieno[2,3-c]pyrazole-5-carboxamide], the IC50 in experiment [1] (setting [3]) was 88 nM; in experiment [2], 4800 nM.
Turning to `Cc1nn(C2CCCCC2)c2sc(C(=O)Nc3ccc4c(c3)CCN4C(=O)C(C)(C)C)cc12` [Example 25, 1-Cyclohexyl-N-[1-(2,2-dimethylpropanoyl)-2,3-dihydro-1H-indol-5-yl]-3-methyl-1H-thieno[2,3-c]pyrazole-5-carboxamide], the IC50 in experiment [1] (setting [3]) was found to be 98 nM; in experiment [2] it was 6500 nM.
Take `Cc1nn(C2CCCCC2)c2sc(C(=O)Nc3ccc(N4CCCN(C)CC4)c(F)c3)cc12` [Example 191, 1-Cyclohexyl-N-[3-fluoro-4-(4-methyl-1,4-diazepam-1-yl)phenyl]-3-methyl-1H-thieno[2,3-c]pyrazole-5-carboxamide hemifumarate]: the IC50 in experiment [1] was 8.9 nM; in experiment [2] it was 980 nM.
For the compound `Cc1nn(C2CCCCC2)c2sc(C(=O)N[C@H]3CC[C@H](C(=O)N4CCOCC4)CC3)cc12` [Example 236, 1-Cyclohexyl-3-methyl-N-[4-(4-morpholinylcarbonyl)cyclohexyl]-1H-thieno[2,3-c]pyrazole-5-carboxamide], the IC50 in experiment [1] (setting [3]) is 20 nM; in experiment [2], 2700 nM.
Regarding `Cc1nn(C2CCCCC2)c2sc(C(=O)N[C@H]3CC[C@H](CN4C(=O)CNC4=O)CC3)cc12` [Example 247, 1-Cyclohexyl-N-{4-[(2,5-dioxo-1-imidazolidinyl)methyl]cyclohexyl}-3-methyl-1H-thieno[2,3-c]pyrazole-5-carboxamide], the results for the concentration for half-maximal inhibition (IC50) in experiment [1] (setting [3]) and in experiment [2] were 6.5 nM and 1400 nM, respectively.
Turning to `Cc1nn(C2CCCCC2)c2sc(C(=O)Nc3ccc(C(=O)N(C)C)cc3)cc12` [Example 39, 1-Cyclohexyl-N-{4-[(dimethylamino)carbonyl]phenyl}-3-methyl-1H-thieno[2,3-c]pyrazole-5-carboxamide], the figures for the IC50 in experiment [1] (setting [3]) and in experiment [2] were 14 nM and 3500 nM, respectively.
Turning to `Cc1nn(C2CCCCC2)c2sc(C(=O)Nc3ccc(C(=O)N4CCC(O)CC4)nc3)cc12` [Example 378, 1-Cyclohexyl-N-{6-[(4-hydroxy-1-piperidinyl)carbonyl]-3-pyridinyl}-3-methyl-1H-thieno[2,3-c]pyrazole-5-carboxamide], the IC50 worked out at 44 nM in experiment [1] (setting [3]) and 2500 nM in experiment [2].
